Test results reported in patent US11214803B2, “Modulators of YAP1 expression” (Ionis Pharmaceuticals, Inc., priority 2019, dated 2022).
Marks after values point to notes of the source that are not given here. Strand notation (5' to 3'): a small letter for the sugar, then the base; units joined by * are phosphorothioate-linked, units joined directly phosphodiester-linked; [ ] holds rarer units or linkages, { } end groups; capitals alone tell only the bases. k = constrained ethyl (cEt); [5mC] = 5-methylcytosine; d = 2'-deoxy (DNA)

Key:
[1] = test system: SNU449 cells; experiment: Cell proliferation assay in SNU449 cells in combination with sorafenib, CellTiter-Glo (Example 48); assay type: cell-based, human; conditions: 144 hours
Protocol: Modified oligonucleotides described in the studies above were tested at various doses in hepatocellular carcinoma cell line SNU449. ION No. 792169, described herein above, was used as a control modified oligonucleotide. ION No. 715487 was used to target Yap1 RNA. […] After approximately 48 hours, Yap1 mRNA levels were measured.
144 hours post treatment, proliferation of SNU449 cells was measured using the luminescent cell viability CellTiter-Glo® 2.0 Assay (Promega). Results are presented in the tables below as percent control of the amount of luminescence in samples treated with modified oligonucleotides relative to untreated control cells (% UTC).

[2] = test system: SNU449 xenograft tumor; experiment: Tumor volume in SNU449 xenograft tumor model, alone and in combination with sorafenib (second Example 30); assay type: in vivo, human; conditions: SNU449 xenograft, oligonucleotide 50 mg/kg, sorafenib 30 mg/kg orally
Protocol: Modified oligonucleotides described in the studies above were tested in a hepatocellular carcinoma SNU449 xenograft tumor model. […] A control oligonucleotide 792169, described herein above, was also tested.
Five million SNU449 cells in 30% matrigel were implanted subcutaneously into the fatpads of female NOD.Cg-Prkdcscid II2rgtmlWjl/SzJ mice (from Jackson Laboratory) at 4-6 weeks of age. 43 days post implantation (when tumors had reached approximately 100 mm^3 in size), groups of eight mice each were administered with 50 mg/kg modified oligonucleotide daily for 10 days (loading dose), following which they were administered with 50 mg/kg modified oligonucleotide four times a week for one week, following which they were dosed with 50 mg/kg modified oligonucleotide thrice weekly until the end of the study. […] Animals were sacrificed, and tumors were collected on day 119 post implantation.
Tumor volumes were also measured at the indicated days in the table below.

[3] = test system: Yap1 mRNA; experiment: Yap1 mRNA levels in SNU449 xenograft tumors (first Example 30); assay type: in vivo, human; conditions: SNU449 xenograft mice, 50 mg/kg, tumors collected day 119 post implantation, relative to PBS
Protocol: Modified oligonucleotides described in the studies above were tested in a hepatocellular carcinoma SNU449 xenograft tumor model. A control oligonucleotide 792169 was also tested.
Five million SNU449 cells in 30% matrigel were implanted subcutaneously into the fatpads of female NOD.Cg-Prkdcscid II2rgtmlWjl/SzJ mice (from Jackson Laboratory) at 4-6 weeks of age. 43 days post implantation (when tumors had reached approximately 100 mm^3 in size), groups of eight mice each were administered with 50 mg/kg modified oligonucleotide daily for 10 days (loading dose), following which they were administered with 50 mg/kg modified oligonucleotide four times a week for one week, following which they were dosed with 50 mg/kg modified oligonucleotide thrice weekly until the end of the study. Animals were sacrificed and tumors were collected on day 119 post implantation. Yap1 mRNA knockdown in tumors was measured by RT-qPCR as previously described using the Human Yap1 primer-probe set RTS4814. Yap1 mRNA levels were normalized to actin-beta content, as measured by primer probe set RTS5002. Results are presented in the tables below as percent control of the amount of Yap1 mRNA relative to PBS treated animals (% control).

[4] = test system: Yap1 mRNA; experiment: Antisense inhibition of human Yap1 in A-431 cells by cEt gapmers, single dose (Example 4, RTS4814); assay type: cell-based
In short: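 A-431 cells took up 3-10-3 cEt gapmers (16-mer, full phosphorothioate, 5-methylcytosines) by free uptake at 2,000 nM for about 48 h. Yap1 mRNA was quantified by qRT-PCR, normalized to total RNA (RIBOGREEN), and reported as % of untreated control.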

[5] = oligonucleotide at 0.04 uM, sorafenib 0 uM
[6] = oligonucleotide at 0.04 uM, sorafenib 0.37 uM
[7] = oligonucleotide at 0.04 uM, sorafenib 3.33 uM
[8] = oligonucleotide at 0.04 uM, sorafenib 10 uM
[9] = oligonucleotide at 0.04 uM, sorafenib […]
[10] = oligonucleotide at 0.2 uM, sorafenib 0 uM
[11] = oligonucleotide at 0.2 uM, sorafenib 0.37 uM
[12] = oligonucleotide at 0.2 uM, sorafenib 3.33 uM
[13] = oligonucleotide at 0.2 uM, sorafenib 10 uM
[14] = oligonucleotide at 0.2 uM, sorafenib […]
[15] = oligonucleotide at 1 uM, sorafenib 0 uM
[16] = oligonucleotide at 1 uM, sorafenib 0.37 uM
[17] = oligonucleotide at 1 uM, sorafenib 3.33 uM
[18] = oligonucleotide at 1 uM, sorafenib 10 uM
[19] = oligonucleotide at 1 uM, sorafenib […]
[20] = oligonucleotide at 5 uM, sorafenib 0 uM
[21] = oligonucleotide at 5 uM, sorafenib 0.37 uM
[22] = oligonucleotide at 5 uM, sorafenib 3.33 uM
[23] = oligonucleotide at 5 uM, sorafenib 10 uM
[24] = oligonucleotide at 5 uM, sorafenib […]
[25] = day 101 post tumor implantation
[26] = day 105 post tumor implantation
[27] = day 108 post tumor implantation
[28] = day 119 post tumor implantation

## 715487 (kA*kT*kT*dA*d[5mC]*dT*dT*d[5mC]*dA*dT*dA*dG*d[5mC]*kT*kT*kA) [compound 715487]
[1]; [5]
  Antiproliferative effect (cell proliferation, luminescence): 98 % UTC
[1]; [6]
  Antiproliferative effect (cell proliferation, luminescence): 102 % UTC
[1]; [7]
  Antiproliferative effect (cell proliferation, luminescence): 27 % UTC
[1]; [8]
  Antiproliferative effect (cell proliferation, luminescence): 2 % UTC
[1]; [9]
  Antiproliferative effect (cell proliferation, luminescence): 93 % UTC
[1]; [10]
  Antiproliferative effect (cell proliferation, luminescence): 93 % UTC
[1]; [11]
  Antiproliferative effect (cell proliferation, luminescence): 94 % UTC
[1]; [12]
  Antiproliferative effect (cell proliferation, luminescence): 12 % UTC
[1]; [13]
  Antiproliferative effect (cell proliferation, luminescence): 2 % UTC
[1]; [14]
  Antiproliferative effect (cell proliferation, luminescence): 77 % UTC
[1]; [15]
  Antiproliferative effect (cell proliferation, luminescence): 84 % UTC
[1]; [16]
  Antiproliferative effect (cell proliferation, luminescence): 83 % UTC
[1]; [17]
  Antiproliferative effect (cell proliferation, luminescence): 5 % UTC
[1]; [18]
  Antiproliferative effect (cell proliferation, luminescence): 1 % UTC
[1]; [19]
  Antiproliferative effect (cell proliferation, luminescence): 45 % UTC
[1]; [20]
  Antiproliferative effect (cell proliferation, luminescence): 64 % UTC
[1]; [21]
  Antiproliferative effect (cell proliferation, luminescence): 64 % UTC
[1]; [22]
  Antiproliferative effect (cell proliferation, luminescence): 3 % UTC
[1]; [23]
  Antiproliferative effect (cell proliferation, luminescence): 1 % UTC
[1]; [24]
  Antiproliferative effect (cell proliferation, luminescence): 23 % UTC

## 1198440 (AAGTGTATGTCAGAAG; cEt, 2'-MOE, 5-methylcytosine, phosphorothioate modifications, further chemistry not given here) [compound 1198440]
[2]; day 43 post tumor implantation
  Average Tumor Volume: 111 mm^3
[2]; day 46 post tumor implantation
  Average Tumor Volume: 152 mm^3
[2]; day 50 post tumor implantation
  Average Tumor Volume: 168 mm^3
[2]; day 53 post tumor implantation
  Average Tumor Volume: 201 mm^3
[2]; day 57 post tumor implantation
  Average Tumor Volume: 242 mm^3
[2]; day 60 post tumor implantation
  Average Tumor Volume: 263 mm^3
[2]; day 64 post tumor implantation
  Average Tumor Volume: 338 mm^3
[2]; day 67 post tumor implantation
  Average Tumor Volume: 376 mm^3
[2]; day 71 post tumor implantation
  Average Tumor Volume: 373 mm^3
[2]; day 75 post tumor implantation
  Average Tumor Volume: 401 mm^3
[2]; day 78 post tumor implantation
  Average Tumor Volume: 429 mm^3
[2]; day 81 post tumor implantation
  Average Tumor Volume: 514 mm^3
[2]; day 85 post tumor implantation
  Average Tumor Volume: 606 mm^3
[2]; day 88 post tumor implantation
  Average Tumor Volume: 613 mm^3
[2]; day 92 post tumor implantation
  Average Tumor Volume: 690 mm^3
[2]; day 94 post tumor implantation
  Average Tumor Volume: 773 mm^3
[2]; day 98 post tumor implantation
  Average Tumor Volume: 804 mm^3
[2]; [25]
  Average Tumor Volume: 818 mm^3
[2]; [26]
  Average Tumor Volume: 894 mm^3
[2]; [27]
  Average Tumor Volume: 921 mm^3
[2]; [28]
  Average Tumor Volume: 978 mm^3
[3]
  Yap1 mRNA levels in tumors: 34 % control

## CGCCGATAAGGTACAC (cEt gapmer, phosphorothioate backbone, further chemistry not given here) [ION 792169, reference compound]
[2]; day 43 post tumor implantation
  Average Tumor Volume: 111 mm^3
[2]; day 46 post tumor implantation
  Average Tumor Volume: 162 mm^3
[2]; day 50 post tumor implantation
  Average Tumor Volume: 180 mm^3
[2]; day 53 post tumor implantation
  Average Tumor Volume: 247 mm^3
[2]; day 57 post tumor implantation
  Average Tumor Volume: 280 mm^3
[2]; day 60 post tumor implantation
  Average Tumor Volume: 317 mm^3
[2]; day 64 post tumor implantation
  Average Tumor Volume: 397 mm^3
[2]; day 67 post tumor implantation
  Average Tumor Volume: 466 mm^3
[2]; day 71 post tumor implantation
  Average Tumor Volume: 519 mm^3
[2]; day 75 post tumor implantation
  Average Tumor Volume: 559 mm^3
[2]; day 78 post tumor implantation
  Average Tumor Volume: 634 mm^3
[2]; day 81 post tumor implantation
  Average Tumor Volume: 681 mm^3
[2]; day 85 post tumor implantation
  Average Tumor Volume: 785 mm^3
[2]; day 88 post tumor implantation
  Average Tumor Volume: 889 mm^3
[2]; day 92 post tumor implantation
  Average Tumor Volume: 1170 mm^3
[2]; day 94 post tumor implantation
  Average Tumor Volume: 1215 mm^3
[2]; day 98 post tumor implantation
  Average Tumor Volume: 1355 mm^3
[2]; [25]
  Average Tumor Volume: 1417 mm^3
[2]; [26]
  Average Tumor Volume: 1509 mm^3
[2]; [27]
  Average Tumor Volume: 1571 mm^3
[2]; [28]
  Average Tumor Volume: 1697* mm^3
[3]
  Yap1 mRNA levels in tumors: 90 % control
[1]; [5]
  Antiproliferative effect (cell proliferation, luminescence): 99 % UTC
[1]; [6]
  Antiproliferative effect (cell proliferation, luminescence): 103 % UTC
[1]; [7]
  Antiproliferative effect (cell proliferation, luminescence): 51 % UTC
[1]; [8]
  Antiproliferative effect (cell proliferation, luminescence): 3 % UTC
[1]; [9]
  Antiproliferative effect (cell proliferation, luminescence): 97 % UTC
[1]; [10]
  Antiproliferative effect (cell proliferation, luminescence): 97 % UTC
[1]; [11]
  Antiproliferative effect (cell proliferation, luminescence): 100 % UTC
[1]; [12]
  Antiproliferative effect (cell proliferation, luminescence): 30 % UTC
[1]; [13]
  Antiproliferative effect (cell proliferation, luminescence): 4 % UTC
[1]; [14]
  Antiproliferative effect (cell proliferation, luminescence): 91 % UTC
[1]; [15]
  Antiproliferative effect (cell proliferation, luminescence): 97 % UTC
[1]; [16]
  Antiproliferative effect (cell proliferation, luminescence): 95 % UTC
[1]; [17]
  Antiproliferative effect (cell proliferation, luminescence): 27 % UTC
[1]; [18]
  Antiproliferative effect (cell proliferation, luminescence): 3 % UTC
[1]; [19]
  Antiproliferative effect (cell proliferation, luminescence): 89 % UTC
[1]; [20]
  Antiproliferative effect (cell proliferation, luminescence): 86 % UTC
[1]; [21]
  Antiproliferative effect (cell proliferation, luminescence): 84 % UTC
[1]; [22]
  Antiproliferative effect (cell proliferation, luminescence): 6 % UTC
[1]; [23]
  Antiproliferative effect (cell proliferation, luminescence): 1 % UTC
[1]; [24]
  Antiproliferative effect (cell proliferation, luminescence): 68 % UTC

## 958499 (kA*kT*kT*dA*dG*dA*dG*dT*dA*dT*dG*dT*dG*kG*k[5mC]*kA) [Compound 958499]
[4]; Table 14, A-431 cells, 5,000 cells per well, free uptake, 2,000 nM, approximately 48 hours, RTS4814, normalized to RIBOGREEN, Yap1 mRNA relative to untreated control, * = targets amplicon region of primer probe set
  YAP1 (% UTC): 2 % UTC
[4]; Table 15, A-431 cells, 5,000 cells per well, free uptake, 2,000 nM, approximately 48 hours, RTS4814, normalized to RIBOGREEN, Yap1 mRNA relative to untreated control, * = targets amplicon region of primer probe set
  YAP1 (% UTC): 1 % UTC
[4]; Table 16, A-431 cells, 5,000 cells per well, free uptake, 2,000 nM, approximately 48 hours, RTS4814, normalized to RIBOGREEN, Yap1 mRNA relative to untreated control cells
  YAP1 (% UTC): 2 % UTC
[4]; Table 17, A-431 cells, 5,000 cells per well, free uptake, 2,000 nM, approximately 48 hours, RTS4814, normalized to RIBOGREEN, Yap1 mRNA relative to untreated control cells
  YAP1 (% UTC): 3 % UTC

## 958499 (ATTAGAGTATGTGGCA; 3-10-3 cEt gapmer, further chemistry not given here) [compound 958499]
[4]; Yap1 mRNA remaining as percent of untreated control, 3-10-3 cEt gapmers, A-431 cells, Table 36
  YAP1 (% UTC): 1 % UTC
[4]; Yap1 mRNA remaining as percent of untreated control, 3-10-3 cEt gapmers, A-431 cells, Table 37
  YAP1 (% UTC): 2 % UTC
